The source of these data is patent US20140303164A1, “THERAPEUTIC COMPOUNDS” (Gilead Sciences, Inc., priority 2013, published 2014).

The test system of data set [1] is HIV-IIIb. The data set can be described thus: Test A: Antiviral Assay in MT4 Cells. It is filed as cell-based, HIV-1. The conditions noted are these: from dose response curve, MT-4 cells, HIV-IIIb, 5 days, values above 100 normalized to 100. The procedure:
Test A: Antiviral Assay in MT4 Cells
MT-4 cells were next mixed with HIV-IIIb at an m.o.i of 0.003 for 1 hour, after which time 35 μL of virus/cell mixture (2000 cells) was immediately added to each well containing 40 μL of diluted compound. The plates were then incubated at 37° C. for 5 days. […] Cell lysis was carried out by incubating at room temperature for 10 min and then chemiluminescence was read.

In data set [2] the test system is uninfected MT-4 cells. Nature of the data set: Test B: Cytotoxicity Assay. The data set is classed as cell-based. The conditions noted are these: same protocol as Test A, 5 days. In outline: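 Uninfected MT-4 cells (2000 per well) incubated with diluted compound at 37° C. for 5 days, following the antiviral protocol without HIV-IIIb.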

As for `CC(C)(C)C#Cc1ccc(-c2cccn3c(NS(C)(=O)=O)nnc23)c([C@H](Cc2cc(F)cc(F)c2)NC(=O)Cn2nc(C(F)F)c3c2C(F)(F)[C@@H]2C[C@H]32)n1` [Compound 134, 2-((3bS,4aR)-3-(difluoromethyl)-5,5-difluoro-3b,4,4a,5-tetrahydro-1H-cyclopropa[3,4]cyclopenta[1,2-c]pyrazol-1-yl)-N—((S)-2-(3,5-difluorophenyl)-1-(6-(3,3-dimethylbut-1-yn-1-yl)-3-(3-(methylsulfonamido)-[1,2,4]triazolo[4,3-a]pyridin-8-yl)pyridin-2-yl)ethyl)acetamide], the % inhibition (usually the percentage by which the read-out fell short of the control) at 0.2 μM in data set [1] (percent inhibition of virus-induced cell killing at 0.2 μM drug concentration) stood at 82%. For the same molecule, the “% inhibition at 2 μM” value in data set [1] (percent inhibition of virus-induced cell killing at 2 μM drug concentration) was 83%. Moreover, the CC50 (in general, the concentration giving 50% cytotoxicity) in data set [2] worked out at 28 µM.
